# Legend:
# [1] = system: high sensitivity C-reactive protein; assay: Inflammatory biomarkers in the FDG-PET/CT study; assay type: in vivo, human; details: 7.5 mg BID versus placebo; 95% CI −46, −5; p=0.023
# Procedure: The primary objective was to measure in-vivo macrophage activity, by fluorodeoxyglucose (FDG) positron emission tomography (PET)/computed tomography (CT) imaging, in carotid arteries and aorta following a 12-week treatment with losmapimod (7.5 mg once daily [QD] and 7.5 mg twice daily [BID]), in the setting of chronic statin therapy, as compared to placebo. Secondary objectives included safety and tolerability of 12 weeks of dosing with losmapimod (7.5 mg QD or 7.5 mg BID). Inflammatory biomarkers and the effect of losmapimod 7.5 mg QD vs 7.5 mg BID on in-vivo macrophage activity, as assessed by FDG-PET/CT imaging. Ninety-nine patients with vascular inflammation on statins were randomised to losmapimod 7.5 mg once daily (QD), twice daily (BID) or placebo for 84 days. Vascular inflammation was assessed by PET-CT imaging of the carotid arteries and aorta using ^18fluorodeoxyglucose (FDG); the artery with the highest average maximum tissue-to-background ratio (TBR) at baseline (TBR>1.6). 92% of the subjects were white, 86% male, the mean age was 63.8 years (SD 6.13). 72% were current or ex-smokers. […] All subjects were on a stable dose of statin for at least 3 months prior to the first dose and continued on this dose of statin throughout the study.
# physchem = assay type: physicochemical
# Description: There is therefore a need for a liquid formulation of said compound that is suitable for this mode of administration which solves this technical problem.
# [2] = system: hypercholerolesteric patients; details: Circulation. 2011;123:515-523; cited from earlier work
# [3] = system: in-vivo macrophage activity in the carotid arteries and aorta of subjects with established atherosclerosis; assay: In-vivo macrophage activity study, FDG-PET/CT imaging; set-up: species or system human; details: 84 days
# Description: Macrophage activity and presence are critical features to the vulnerability of plaque in the vasculature. The pivotal nature of p38 MAPK in signaling stress, and its presence in macrophages can be monitored by labeling glucose (fluorodeoxyglucose), an otherwise key nutrient for macrophage activity, and observing its uptake in macrophages using […]. […] The primary objective was to measure in-vivo macrophage activity, by fluorodeoxyglucose (FDG) positron emission tomography (PET)/computed tomography (CT) imaging, in carotid arteries and aorta following a 12-week treatment with losmapimod (7.5 mg once daily [QD] and 7.5 mg twice daily [BID]), in the setting of chronic statin therapy, as compared to placebo. Secondary objectives included safety and tolerability of 12 weeks of dosing with losmapimod (7.5 mg QD or 7.5 mg BID). Inflammatory biomarkers and the effect of losmapimod 7.5 mg QD vs 7.5 mg BID on in-vivo macrophage activity, as assessed by FDG-PET/CT imaging. Ninety-nine patients with vascular inflammation on statins were randomised to losmapimod 7.5 mg once daily (QD), twice daily (BID) or placebo for 84 days. Vascular inflammation was assessed by PET-CT imaging of the carotid arteries and aorta using ^18fluorodeoxyglucose (FDG); the artery with the highest average maximum tissue-to-background ratio (TBR) at baseline (TBR>1.6). […]
# [4] = system: patients with acute coronary syndrome (non-ST elevation); assay: Recurrent infarction, infarct size and cardiac function in subjects with myocardial infarction (Example 4 study); assay type: in vivo, human
# Procedure: (§1) In a randomised, double-blind, placebo controlled study, patients (n=approximately 500) who were admitted to a hospital with the diagnosis of acute coronary syndrome (specifically with non-ST elevation EKG findings upon entry) were provided an oral dose of losmapimod (7.5 mg or 15 mg and thereafter followed by 7.5 mg every 12 hours) or placebo for a period of 3 months.
# CRP and IL6 levels = assay: Inflammatory markers in subjects with myocardial infarction (Example 4 study); assay type: in vivo, human; details: oral 7.5 mg or 15 mg then 7.5 mg every 12 hours; average 4.5 day initial hospital stay, setting of stent placement
# Procedure: as §1
compound,measurement,setting,value
"Cc1c(F)cc(C(=O)NC2CC2)cc1-c1ccc(C(=O)NCC(C)(C)C)cn1 [losmapimod, 6-(5-cyclopropylcarbamoyl-3-fluoro-2-methyl-phenyl)-N-(2,2-dimethylpropyl)-nicotinamide]","high sensitivity C-reactive protein, reduction versus placebo",[1],−28%
same,solubility,physchem,~5 µg/mL
same,nitric oxide mediated vasodilatation,[2],improves
same,"proportion of active slices (TBR≧1.6), change from baseline","[3]; 7.5 mg BID, placebo −6.1%, p=0.002, exploratory analysis",−9.8%
same,change from baseline to day 84 in average maximum TBR (primary end point),"[3]; losmapimod versus placebo, patients on statins",not significantly different
same,"size of the infarct by magnetic resonance image, lower versus placebo","[4]; MRI 4-5 days after the index infarct, smaller cohort n=approximately 90",> 20%
same,"BNP levels (surrogate for cardiac function), reduction",[4]; after 12 weeks of treatment,> 20%
same,size of the index infarct by release of cardiac muscle enzymes,"[4]; enzymes measured every 8 hours, treated versus placebo group",unchanged
same,three month MR imaging of cardiac function and dimensions,[4]; three months of treatment,improved function and smaller overall cardiac dimensions
same,"number of recurrent myocardial infarctions (or episodes of ACS), lower with treatment compared to placebo","[4]; within the first few months beyond the index infarct, not statistically significant",over 15%
same,"CRP level, lower with treatment compared to placebo",CRP and IL6 levels,> 50%
same,"IL6 level, lower with treatment compared to placebo",CRP and IL6 levels,> 50%

# — US20160367542A1, “NICOTINAMIDE DERIVATE IN THE TREATMENT OF ACUTE CORONARY SYNDROME” (GlaxoSmithKline LLC, priority 2012, published 2016)
